Source: ChEMBL document CHEMBL1158855, “Study on cytotoxic oxygenated desmosterols isolated from the red alga Galaxaura marginata” (1997)
≈ marks a conversion by molar mass, not a printed value.

Tests used:
Type in all cases: functional
Conditions in all cases: read-out: ED50 (the source's name)
P388 = assay: Cytotoxicity against mouse P388 cells by MTT assay
HT-29 = assay: Cytotoxicity against human HT29 cells by MTT assay
A549 = assay: Cytotoxicity against human A549 cells by MTT assay
KB = assay: Cytotoxicity against human KB cells by MTT assay

SMILES | EC50 (P388) [µg/mL] | EC50 (HT-29) [µg/mL] | EC50 (A549) [µg/mL] | EC50 (KB) [µg/mL]
C=C(C)C(CC[C@@H](C)[C@H]1CC[C@H]2[C@@H]3C[C@@H](O)C4=CC(=O)CC[C@]4(C)[C@H]3CC[C@]12C)OO (stereo not given in full) | 0.22 (≈ 0.511 µM) | 0.47 (≈ 1.09 µM) | 0.58 (≈ 1.35 µM) | 0.79 (≈ 1.83 µM)
C=C(C)C(O)CC[C@@H](C)[C@H]1CC[C@H]2[C@@H]3C[C@@H](O)C4=CC(=O)CC[C@]4(C)[C@H]3CC[C@]12C (stereo not given in full) | 0.19 (≈ 0.458 µM) | 0.3 (≈ 0.724 µM) | 2.37 (≈ 5.72 µM) | 0.83 (≈ 2 µM)
C=C(C)C(=O)CC[C@@H](C)[C@H]1CC[C@H]2[C@@H]3CC(=O)C4=CC(=O)CC[C@]4(C)[C@H]3CC[C@]12C | 0.11 (≈ 0.268 µM) | 0.3 (≈ 0.731 µM) | 0.27 (≈ 0.658 µM) | 0.24 (≈ 0.585 µM)
C[C@H](C/C=C/C(C)(C)OO)[C@H]1CC[C@H]2[C@@H]3C[C@@H](O)C4=CC(=O)CC[C@]4(C)[C@H]3CC[C@]12C | 0.28 (≈ 0.65 µM) | 0.63 (≈ 1.46 µM) | 1 (≈ 2.32 µM) | 0.4 (≈ 0.929 µM)
C[C@H](C/C=C/C(C)(C)O)[C@H]1CC[C@H]2[C@@H]3C[C@@H](O)C4=CC(=O)CC[C@]4(C)[C@H]3CC[C@]12C | 0.14 (≈ 0.338 µM) | 0.55 (≈ 1.33 µM) | 1.54 (≈ 3.71 µM) | 0.45 (≈ 1.09 µM)
